The subject of series [1] is H460 human epithelial lung cancer cells. The experiment in a line: Cell survivability (MTS), H460. The note with it: varying concentrations based on amount of drug, FIG. 18. An excerpt:
(§1) Metabolism in viable cells produces “reducing equivalents,” such as, NADH or NADPH. Such reducing compounds pass electrons to an intermediate electron transfer reagent that can reduce the tetrazolium product, MTS (Promega), into an aqueous, soluble formazan product, which is colored. At death, cells rapidly lose the ability to reduce tetrazolium products. The production of the colored formazan product, therefore, is proportional to the number of viable cells in culture.
(§2) The CellTiter 96® Aqueous products (Promega) are MTS assays for determining the number of viable cells in culture. […] A single reagent added directly to the assay wells at a recommended ratio of 20 μl reagent to 100 μl of culture medium was used. Cells were incubated 1-4 hours at 37° C. and then absorbance was measured at 490 nm.
(§3) Varying concentrations of CPT-11 and the camptothecin branched polymer aggregates described above were prepared.
(§4) Two cancer cell lines were maintained in suitable medium under recognized culture conditions. MCF-7 is a human breast cancer cell line and H460 is a human epithelial lung cancer cell line. Those cell lines were exposed to varying concentrations of CPT-11 and concentrations of the camptothecin aggregates based on the amount of drug. Cell survivability was assessed as described above.

In series [2] the test system is MCF-7 human breast cancer cells. Kind of series: Cell survivability (MTS), MCF-7. Particulars: varying concentrations based on amount of drug, FIG. 17.
From the text: as §1, §2, §3, §4

Turning to `CCc1c2c(nc3ccc(OC(=O)N4CCC(N5CCCCC5)CC4)cc13)-c1cc3c(c(=O)n1C2)COC(=O)[C@]3(O)CC` [CPT-11, Irinotecan], the values for the cytotoxicity result in series [1] and in series [2] were “dose response curve of cytotoxicity” and “increased with increasing drug concentration”, respectively.
